≈ marks a conversion by molar mass, not a printed value. Where “and” joins values, the source holds several entries; their conditions need not be identical. Equal entries are not always repeated. Entries after “also recorded” stand apart in the source; their conditions may differ.

Experiment [1] relates to H. pylori ZJC03. The experiment in a line: Bacteriostasis experiment by Kirby-Bauer method (inhibition zone). The note with it: 6 mm filter paper disk, 72 h. Format: cell-based, Helicobacter pylori. The protocol: Preparation of different concentrations of phenyllactic acid: phenyllactic acid was diluted two-fold to 40 mg/mL, 20 mg/mL, 10 mg/mL, 5 mg/mL, 2.5 mg/mL and 1.25 mg/mL. The solvent used for dilution was ultrapure water.
Preparation of antimicrobial susceptibility disks: filter paper was made into circular disks with a diameter of 6 mm, subjected to autoclaved sterilization for 15 min and dried. Each circular filter paper disk was completely soaked in phenyllactic acid solutions with different concentrations, and ultrapure water was taken as a blank control to obtain antimicrobial susceptibility disks with different concentrations.
Coating and culture: 100 μL of 10^8 CFU/mL of an H. pylori bacterial solution was evenly coated on a CBA medium and dried. Then the antimicrobial susceptibility disks with different concentrations of the phenyllactic acid were pasted on a plate by tweezers, and this operation was repeated 3 times for disks of each concentration. Then the plate was placed in a culture box (containing a microaerophilic gas-generating pack inside) and statically cultured at 37° C. for 72 h. The size of an inhibition zone (mm) was measured and the measurement result was recorded.

In experiment [2] the test system is H. pylori ZJC03. The experiment in a line: Antimicrobial susceptibility test of H. pylori ZJC03 (E-test paper). Format: cell-based, Helicobacter pylori. The note with it: clinical strain H. pylori ZJC03, E-test paper. Here is the method: The sensitivity of H. pylori ZJC03 was tested by using an E-text test paper.
Experiment [3] has as its system H. pylori. The experiment in a line: Determination of minimum inhibitory concentration (agar dilution method). Format: cell-based, Helicobacter pylori. The note with it: 37° C., 48 h, microaerobic. (In agar dilution the substance is mixed into plates at graded concentrations.)
Experiment [4] relates to H. pylori. The experiment in a line: Effects of sub-inhibitory concentrations on growth curves of H. pylori. Format: cell-based, Helicobacter pylori. Here is the method: According to the determination of the bacteriostatic ability, the effects of phenyllactic acid on growth curves were analyzed. An H. pylori suspension cultured overnight was inoculated into a sterilized modified Brucella broth medium. The concentration was adjusted such that the initial inoculum size of the bacteria was 1×10^8 CFU/mL. The phenyllactic acid was added at the final concentrations of ⅛ MIC, ¼ MIC, ½ MIC and MIC, and no drug was added to the control group. The mixed solution was placed in a microaerobic environment at 37° C. for 120 h, the OD560 value was determined every other 12 h, and the changes of the growth curves at sub-inhibitory concentrations were observed and recorded.

Experiment [5] addresses T1, urease activity of H. pylori ZJC03 (Helicobacter pylori, UniProt P69996).
T1 construct: A total of 50 μL of the H. pylori culture solution and 50 μL of the phenyllactic acid; endogenous in cells; host or cells: Helicobacter pylori ZJC03 (live culture, 1×10^8 CFU/mL)
The experiment in a line: Urease activity of H. pylori, phenol red method. The note with it: co-cultured 48 h. Format: biochemical.

The subject of experiment [6] is H. pylori ZJC03. The experiment in a line: Ultra microstructure observation (SEM, TEM, negative-stain TEM). Format: cell-based, Helicobacter pylori. The note with it: at the MIC.
Experiment [7] relates to gastric mucosal injury caused by H. pylori infection. The experiment in a line: Histopathological observation (H&E) of gastric tissues of H. pylori infected mice. The note with it: phenyllactic acid 0.8 mg/mL, 400 μL gavage daily 4 weeks, antibiotics 400 μL daily 10 days. Format: in vivo, C57BL/6J mice. Here is the method:
After one week of acclimation, mice were randomly divided into 4 groups: ZC, ZH, ZP and ZA. The mice in the groups were treated as follows: ZC group (15 mice): every mouse was gavaged once every other day with 400 μL of a modified Brucella broth medium for 2 weeks, followed by daily gavage of 400 μL of ultrapure water every day for 4 weeks. […] The bacterial content of the H. pylori ZJC03 suspension was 10^8 CFU/mL. After the molding, all the mice in each group were sacrificed by cervical dislocation. Gastric mucosa samples were washed with PBS and collected aseptically. The stomach contents were frozen in liquid nitrogen and subsequently stored at −80° C. for testing in Examples 8-10. The gastric mucosa was fixed in a 4% paraformaldehyde (PFA) buffer solution for 24 h at room temperature. After the treatment, the stomach tissue was embedded with an EG 1160 paraffin machine. The paraffin block was placed in an RM 2235 rotary microtome for sectioning (5 μm), and the sections were stained with hematoxylin and eosin (H&E). The stained sections were observed under a light microscope and photographed (NIKON Eclipse Ci, Japan); and the imaging system was: NIKON digital sight DS-FI2, and the photographic magnification was: 400× and 200×.

Experiment [8] relates to IFN-γ, IL-6, IL-1β and IL-10 in the stomach tissue. The experiment in a line: RT-qPCR of inflammatory factors in gastric mucosal tissues of H. pylori infected mice. The note with it: gavage. Format: in vivo, C57BL/6J mice. Here is the method: After one week of acclimation, mice were randomly divided into 4 groups: ZC, ZH, ZP and ZA. The mice in the groups were treated as follows: […] After the molding, all the mice in each group were sacrificed by cervical dislocation. Gastric mucosa samples were washed with PBS and collected aseptically. The stomach contents were frozen in liquid nitrogen and subsequently stored at −80° C. for testing in Examples 8-10. The quantitative analysis of IFN-γ, IL-6, IL-1β and IL-10 in the stomach tissue was performed by RT-qPCR. Total RNA (100-500 ng/μL) was isolated from mouse stomach tissue samples according to the instructions of an RNA extraction kit, followed by reverse transcription of RNA into cDNA using the kit. The levels of each gene were normalized using GAPDH as an internal control. The RT-qPCR assay was performed according to the following thermal cycle program: pre-denaturation at 95° C. for 10 min, 40 cycles of 95° C. for 15 s and 60° C. for 30 s, and the melting curve was from 60° C. to 95° C. with a temperature increase of 0.3° C. every 15 s and the fluorescence signal was collected once, and a 2^−ΔΔCt method was used for calculation.
In general terms: In qPCR the cycle at which signal appears reflects the starting amount.

The test system of experiment [9] is mouse gastric flora. The experiment in a line: Gastric microbiota analysis by 16S rRNA gene sequencing in H. pylori infected mice. Format: in vivo, C57BL/6J mice. The protocol: After one week of acclimation, mice were randomly divided into 4 groups: ZC, ZH, ZP and ZA. The mice in the groups were treated as follows:
ZP group (45 mice): every mouse was gavaged once every other day with 400 μL of the H. pylori ZJC03 bacterial suspension for 2 weeks, followed by daily gavage of 400 μL of phenyllactic acid (at the concentrations of 0.16 mg/mL, 0.32 mg/mL and 0.8 mg/mL respectively, and 15 mice for each concentration) every day for 4 weeks.
ZA group (15 mice): every mouse was gavaged once every other day with 400 μL of the H. pylori ZJC03 bacterial suspension for 2 weeks, followed by 10 days of gavage of combined antibiotics (at the dose of 400 μL per mouse per day), and after 10 days, each mouse continued to be gavaged with 400 μL of ultrapure water for 18 days.
After the molding, all the mice in each group were sacrificed by cervical dislocation. Gastric mucosa samples were washed with PBS and collected aseptically. The stomach contents were frozen in liquid nitrogen and subsequently stored at −80° C. for testing in Examples 8-10.
DNA samples were extracted from the gastric mucosa by a CTAB method, and the quality of DNA extraction was detected by agarose gel electrophoresis, and at the same time, the DNA was quantified by an ultraviolet spectrophotometer. The hypervariable regions V3-V4 of 16S rRNA of bacteria were amplified by using universal primers (341F and 805R). Paired-end sequencing of 2×250 bp was performed using a NovaSeq 6000 sequencer, and DNA extraction and sequencing were completed in the LC-Bio Technologies Co. Ltd.

The mark [10] stands for this setting: gastric mucosa, ZP = 0.8 mg/mL phenyllactic acid, ZA = antibiotic treatment.

T1 sequence (P69996 whole entry): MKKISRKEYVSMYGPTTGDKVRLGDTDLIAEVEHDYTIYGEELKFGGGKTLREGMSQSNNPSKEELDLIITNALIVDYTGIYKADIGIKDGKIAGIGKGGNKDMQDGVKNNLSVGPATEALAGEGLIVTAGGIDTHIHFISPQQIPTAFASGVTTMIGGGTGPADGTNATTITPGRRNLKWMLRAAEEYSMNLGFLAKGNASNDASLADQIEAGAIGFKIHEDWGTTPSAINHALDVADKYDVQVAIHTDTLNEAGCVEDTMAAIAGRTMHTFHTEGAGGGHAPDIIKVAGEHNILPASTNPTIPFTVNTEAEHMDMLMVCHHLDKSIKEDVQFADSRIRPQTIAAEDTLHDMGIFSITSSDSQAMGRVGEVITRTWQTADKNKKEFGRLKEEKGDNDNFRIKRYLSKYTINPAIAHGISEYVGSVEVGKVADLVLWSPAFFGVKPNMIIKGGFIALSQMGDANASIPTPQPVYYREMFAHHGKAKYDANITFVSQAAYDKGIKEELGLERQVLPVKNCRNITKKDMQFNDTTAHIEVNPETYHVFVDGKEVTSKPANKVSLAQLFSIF
T1 sequence (P14916 whole entry, further chain): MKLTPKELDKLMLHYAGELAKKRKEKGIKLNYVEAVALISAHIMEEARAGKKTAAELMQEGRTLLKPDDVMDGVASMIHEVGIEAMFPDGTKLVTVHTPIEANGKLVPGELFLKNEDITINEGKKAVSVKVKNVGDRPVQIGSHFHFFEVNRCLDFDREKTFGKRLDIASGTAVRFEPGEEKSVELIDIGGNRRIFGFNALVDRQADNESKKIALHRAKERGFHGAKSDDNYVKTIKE

For `CC(O)C(=O)O` (stereo not shown) [lactic acid], the Inhibition zone diameter result in experiment [1] (10 mg/mL solution) is reported as “no visible inhibition zone”.
For the compound `CN(C)[C@@H]1C(O)=C(C(N)=O)C(=O)[C@@]2(O)C(O)=C3C(=O)c4c(O)cccc4[C@@](C)(O)[C@H]3C[C@@H]12` [Tetracycline], the “Sensitivity of H. pylori ZJC03 to antibiotics” value in experiment [2] stood at 0.023 µg/mL.
For `CC1(C)S[C@@H]2[C@H](NC(=O)[C@H](N)c3ccc(O)cc3)C(=O)N2[C@H]1C(=O)O` [Amoxicillin], the “Sensitivity of H. pylori ZJC03 to antibiotics” value in experiment [2] was found to be 0.016 µg/mL.
Same read-out and setting: for `CC[C@H]1OC(=O)[C@H](C)[C@@H](O[C@H]2C[C@@](C)(OC)[C@@H](O)[C@H](C)O2)[C@H](C)[C@@H](O[C@@H]2O[C@H](C)C[C@H](N(C)C)[C@H]2O)[C@](C)(OC)C[C@@H](C)C(=O)[C@H](C)[C@@H](O)[C@]1(C)O` [Clarithromycin] the value was 0.8 µg/mL; for `Cc1ncc([N+](=O)[O-])n1CCO` [Metronidazole], “insensitive”.
Regarding `O=C(O)C(O)Cc1ccccc1` (stereo not shown) [phenyllactic acid, Phenyllactic acid], the Inhibition zone diameter entry in [1] (1.25 mg/mL solution) was “no inhibition zone”. Besides, the Inhibition zone diameter in experiment [1] (2.5 mg/mL solution) was 6.94 ± 0.95 mm. In addition, the Inhibition zone diameter in [1] (5 mg/mL solution) is reported as 7.51 ± 0.74 mm. The compound further returned an Inhibition zone diameter in [1] (10 mg/mL solution) of 9.98±0.97 mm. This compound registered an Inhibition zone diameter in [1] (20 mg/mL solution) of 12.41 ± 0.14 mm. Also, in experiment [1] (40 mg/mL solution), the Inhibition zone diameter was 15.35 ± 0.94 mm. In [3], the “minimum inhibitory concentration (MIC)” value is 2.5 mg/mL (≈ 15 mM). For the same compound, the “growth of H. pylori (growth curve, OD560)” value (“growth of H. pylori” for short) in experiment [4] (MIC, 48 h, 72 h, 96 h and 120 h) is “completely inhibited; also recorded: significantly inhibited”. The “growth of H. pylori” value in experiment [4] (¼ MIC) is “a certain bactericidal effect”. Besides, the “growth of H. pylori” value in [4] (½ MIC, 48 h, 72 h, 96 h and 120 h) was “significantly inhibited”. The “growth of H. pylori” value in experiment [4] (⅛ MIC) is “basically not inhibited”. Further, the “inhibitory effect on urease activity” value in experiment [5] (at 0.25 MIC) is reported as “no significant inhibitory effect”. For the same compound, the “inhibitory effect on urease activity” value in experiment [5] (at 0.5 MIC) was “no significant inhibitory effect”. Moreover, the “inhibition rate of urease activity” value in [5] (at 2 MIC) is listed as 80.13%±1.18%. The “inhibition rate of urease activity” value in experiment [5] (at the MIC) is 43.01%+2.11% and 43.01%±2.11%. In addition, in experiment [6] (5-10 min), the “bacterial cell morphology, negative-stain transmission electron microscopy” value was “The flagella of the bacterial cells fell off”. In experiment [6] (4 h), the “bacterial cell internal structure, transmission electron microscopy” value is recorded as “the cell walls were separated from the cell membranes” and the “bacterial cell morphology, scanning electron microscopy” value was “most bacterial cells appeared to be disintegrated”. In addition, the “H&E histopathology of gastric mucosa” value in experiment [7] is “the tissue structure was substantially normal; also recorded: inflammatory cells basically disappeared”. Besides, in experiment [8], the “IFN-γ gene expression in gastric mucosa vs ZH modeling group” value is on record as “significantly decreased; also recorded: significantly reduce”, the “IL-1β gene expression in gastric mucosa vs ZH modeling group” value is reported as “significantly decreased; also recorded: significantly reduce”, the “IL-6 gene expression in gastric mucosa vs ZH modeling group” value is “significantly decreased; also recorded: significantly reduce” and the “IL-10 relative expression level in gastric mucosa vs ZH modeling group” value is recorded as “increased without a statistical difference”. Also, the “effect on the diversity of the gastric flora” value in experiment [9] (ZP group compared with ZA group) is on record as “no significant effect”. Besides, in [9] (after 4 weeks of treatment), the “decrease of relative abundance of Helicobacter pylori compared with ZH group” value was 9.46% and the “gastric flora with significant increases at the genus level (LEfSe, LDA>3)” value is reported as “Prevotella, Lactobacillus, Faecalibaculum, Olsenella, Aerococcus”. For the same compound, in experiment [9] (setting [10]), the “Chao1 (alpha diversity)” value is reported as 464.56, the “Observed species (alpha diversity)” value amounted to 453.6, the “Shannon (alpha diversity)” value is recorded as 6.139 and the “Simpson (alpha diversity)” value is 0.9287. Further, in experiment [9] (genus level), the “Helicobacter in the stomach” value is reported as “significantly inhibit”, the “content / growth of Lactobacillus in the stomach” value is listed as “improved; also recorded: significantly promote the growth” and the “relative abundance of Lactobacillus in gastric microbiota” value is on record as 22.39%. For the same compound, in experiment [9] (phylum level), the “proportion of Proteobacteria in gastric flora vs ZH group” value is listed as “significantly decreased” and the “ratio of Bacteroides to Firmicutes in gastric flora” value is given as “increased”.

The values are drawn from US20250161249A1, “USE OF PHENYLLACTIC ACID IN INHIBITING HELICOBACTER PYLORI INFECTION” (Zhejiang Gongshang University, priority 2022, published 2025).
